Drawing on US12240862B2, “Inhibitors of peptidylarginine deiminases” (Gilead Sciences, Inc., priority 2020, dated 2025), this text covers IC50 for 19 compounds.

One may read the IC50 as the concentration needed to halve the response being measured.

This test deals with T1, human PAD4 (Homo sapiens, UniProt Q9UM07).
T1 construct: human PAD4 (NM_012387), A2P663, was PCR amplified; His-SUMO (N, cleaved yes); made in house; host or cells: E. coli BL21(DE3)
T1 sequence (Q9UM07 2-663): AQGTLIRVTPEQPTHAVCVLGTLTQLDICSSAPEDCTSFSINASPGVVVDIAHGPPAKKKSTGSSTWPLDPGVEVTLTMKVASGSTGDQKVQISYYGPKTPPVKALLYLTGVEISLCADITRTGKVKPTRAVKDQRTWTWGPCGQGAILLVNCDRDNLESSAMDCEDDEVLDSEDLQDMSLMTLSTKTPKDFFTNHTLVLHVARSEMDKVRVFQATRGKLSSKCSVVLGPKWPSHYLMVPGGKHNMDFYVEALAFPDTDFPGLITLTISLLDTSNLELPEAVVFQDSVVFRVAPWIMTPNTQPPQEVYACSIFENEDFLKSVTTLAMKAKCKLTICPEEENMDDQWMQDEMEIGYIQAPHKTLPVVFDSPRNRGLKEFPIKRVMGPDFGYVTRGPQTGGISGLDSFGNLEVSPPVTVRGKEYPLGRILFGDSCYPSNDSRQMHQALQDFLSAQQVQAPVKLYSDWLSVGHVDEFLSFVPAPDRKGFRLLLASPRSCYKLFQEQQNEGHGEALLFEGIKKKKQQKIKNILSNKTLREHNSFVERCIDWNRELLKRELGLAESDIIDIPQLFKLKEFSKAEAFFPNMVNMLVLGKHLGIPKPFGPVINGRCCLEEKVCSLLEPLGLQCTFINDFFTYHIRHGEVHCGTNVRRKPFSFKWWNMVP
As to the kind of experiment: In vitro PAD4 BAEE biochemical assay. Particulars: human PAD4, BAEE substrate; 5 nM PAD4, 2 mM calcium chloride, 3 mM BAEE; geometric mean of multiple experiments. In short, it runs like this:
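Ammonia release from BAEE deimination monitored by o-phthalaldehyde amine coupling (1 h, 25 °C) after EDTA stop. Final conditions: 5 nM tag-free recombinant human PAD4 (E. coli), 2 mM CaCl2, 3 mM BAEE, pH 7.6 MOPS with DTT; 30 min compound preincubation, then 2 h reaction at 25 °C.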
For the compound `COc1cc(C(=O)N2CCC[C@@H](N)C2)cc2nc(-c3cc4ccc(C(NC(C)=O)C(C)C)nc4n3CC3CC3)c(C)n12` (stereo partly shown) [Example 195, ~{N}-[1-[2-[7-[(3~{R})-3-aminopiperidine-1-carbonyl]-5-methoxy-3-methylimidazo [1,2-a]pyridin-2-yl]-1-(cyclopropylmethyl)pyrrolo [2,3-b]pyridin-6-yl]-2-methylpropyl]acetamide], the IC50 is 519 nM.

`COc1cc(C(=O)N2[C@H]3CC[C@@H]2[C@H](N)C3)cc2nc(-c3cc4ccc([C@@H](C)NC(=O)NCc5ncccn5)nc4n3CC3CC3)c(C)n12` [Example 224, 1-[(1~{R})-1-[2-[7-[(1~{R},2~{R},4~{S})-2-amino-7-azabicyclo[2.2.1]heptane-7-carbonyl]-5-methoxy-3-methylimidazo [1,2-a]pyridin-2-yl]-1-(cyclopropylmethyl)pyrrolo [2,3-b]pyridin-6-yl]ethyl]-3-(pyrimidin-2-ylmethyl)urea]: the 50% inhibitory concentration (IC50) is 31.5 nM.

For the compound `COc1cc(C(=O)N2[C@H]3CC[C@@H]2[C@H](N)C3)cc2nc(-c3cc4ccc([C@@H](C)NC(=O)CCC(=O)NS(=O)(=O)c5ccccc5)nc4n3CC3CC3)c(C)n12` [Example 156, ~{N}-[(1~{R})-1-[2-[7-[(1~{R},2~{R},4~{S})-2-amino-7-azabicyclo[2.2.1]heptane-7-carbonyl]-5-methoxy-3-methylimidazo [1,2-a]pyridin-2-yl]-1-(cyclopropylmethyl)pyrrolo [2,3-b]pyridin-6-yl]ethyl]-~{N}′-(benzenesulfonyl) butanediamide], the half-inhibitory concentration (IC50) turned out to be 20.3 nM.

As for “[(1~{R},2~{R},4~{S})-2- amino-7-azabicyclo [2.2.1]heptan-7-yl]-[2-[6- ethyl-1-[(1~{R},2~{R})-2- phenylcyclopropyl]methyl] pyrrolo[2,3-b] pyridin-2-yl]-5-methoxy-3- methylimidazo[1,2-a] pyridin-7-yl]methanone [Example 492]”, the IC50 worked out at 2090 nM.

Regarding `COc1cc(C(=O)N2[C@H]3CC[C@@H]2[C@H](N)C3)cc2nc(-c3cc4ccc([C@@H](C)NC(=O)CC(C)(C)C(=O)O)nc4n3CC3CC3)c(C)n12` [Example 161, 4-[[(1~{R})-1-[2-[7-[(1~{R},2~{R},4~{S})-2-amino-7-azabicyclo[2.2.1]heptane-7-carbonyl]-5-methoxy-3-methylimidazo [1,2-a]pyridin-2-yl]-1-(cyclopropylmethyl)pyrrolo [2,3-b]pyridin-6-yl]ethyl]amino]-2,2-dimethyl-4-oxobutanoic acid], the IC50 was 79.8 nM.

As for `Cc1c(-c2cc3ccc(N(C(F)F)S(C)(=O)=O)nc3n2CC2CC2)nc2cc(C(=O)N3CCC[C@@H](N)C3)cc([S+](C)[O-])n12` (stereo partly shown) [Example 424, ~{N}-[2-[7-[(3~{R})-3-aminopiperidine-1-carbonyl]-3-methyl-5-methylsulfinylimidazo[1,2-a]pyridin-2-yl]-1-(cyclopropylmethyl)pyrrolo [2,3-b]pyridin-6-yl]-~{N}-(difluoromethyl) methanesulfonamide], the IC50 is 18000 nM.

As to `COc1cc(C(=O)N2[C@H]3CC[C@@H]2[C@H](N)C3)cc2nc(-c3cc4ccc([C@@H](C)NC(=O)N5CCC(F)(F)CC5)nc4n3CC3CC3)c(C)n12` [Example 207, ~{N}-[(1~{R})-1-[2-[7-[(1~{R},2~{R},4~{S})-2-amino-7-azabicyclo[2.2.1]heptane-7-carbonyl]-5-methoxy-3-methylimidazo [1,2-a]pyridin-2-yl]-1-(cyclopropylmethyl)pyrrolo [2,3-b]pyridin-6-yl]ethyl]-4,4-difluoropiperidine-1-carboxamide], the 50% inhibitory concentration (IC50) turned out to be 46 nM.

With `COc1cc(C(=O)N2[C@H]3CC[C@@H]2[C@H](N)C3)cc2nc(-c3cc4ccc([C@@H](C)NC(=O)[C@@H](C)OC)nc4n3CC3CC3)c(C)n12` [Example 40, (2~{R})-~{N}-[(1~{R})-1-[2-[7-[(1~{R},2~{R},4~{S})-2-amino-7-azabicyclo [2.2.1]heptane-7-carbonyl]-5-methoxy-3-methylimidazo [1,2-a]pyridin-2-yl]-1-(cyclopropylmethyl)pyrrolo[2,3-b]pyridin-6-yl]ethyl]-2-methoxypropanamide], the half-maximal inhibitory concentration (IC50) was found to be 64.5 nM.

`COc1cc(C(=O)N2[C@H]3CC[C@@H]2[C@H](N)C3)cc2nc(-c3cc4ccc([C@@H](C)NC(=O)c5cnc(C6CC6)o5)nc4n3CC3CC3)c(C)n12` [Example 79, ~{N}-[(1~{R})-1-[2-[7-[(1~{R},2~{R},4~{S})-2-amino-7-azabicyclo[2.2.1]heptane-7-carbonyl]-5-methoxy-3-methylimidazo [1,2-a]pyridin-2-yl]-1-(cyclopropylmethyl)pyrrolo [2,3-b]pyridin-6-yl]ethyl]-2-cyclopropyl-1,3-oxazole-5-carboxamide]: the IC50 is 56 nM.

As to `COc1cc(C(=O)N2[C@H]3CC[C@@H]2[C@H](N)[C@H](OC)C3)cc2nc(-c3cc4ccc([C@@H](C)NC(=O)C56CC(F)(C5)C6)nc4n3CC3CC3)c(C)n12` [Example 22, ~{N}-[(1~{R})-1-[2-[7-[(1~{R},2~{S},3~{R}, 5~{S})-2-amino-3-methoxy-8-azabicyclo [3.2.1]octane-8-carbonyl]-5-methoxy-3-methylimidazo [1,2-a]pyridin-2-yl]-1-(cyclopropylmethyl)pyrrolo[2,3-b]pyridin-6-yl]ethyl]-3-fluorobicyclo[1.1.1] pentane-1-carboxamide], the half-inhibitory concentration (IC50) stood at 483 nM.

In the case of `COc1cc(C(=O)N2CC3(CNC3)C2)cc2nc(-c3cc4ccc(N(C(F)F)S(C)(=O)=O)nc4n3CC3CC3)c(C)n12` [Example 367, ~{N}-[1-(cyclopropylmethyl)-2-[7-(2,6-diazaspiro[3.3]heptane-2-carbonyl)-5-methoxy-3-methylimidazo[1,2-a]pyridin-2-yl]pyrrolo[2,3-b]pyridin-6-yl]-~{N}-(difluoromethyl) methanesulfonamide], the IC50 turned out to be 5310 nM.

`CCc1ccc2cc(-c3nc4cc(C(=O)N5[C@H]6CC[C@@H]5[C@H](N)C6)cc(OC)n4c3C)[nH]c2n1` [Example 506, [(1~{R},2~{R},4~{S})-2-amino-7-azabicyclo [2.2.1]heptan-7-yl]-[2-(6-ethyl-1~{H}-pyrrolo[2,3-b]pyridin-2-yl)-5-methoxy-3-methylimidazo[1,2-a]pyridin-7-yl]methanone]: the IC50 was 42300 nM.

As to `CS(=O)(=O)N(c1ccc2cc(-c3nc4cc(C(=O)N5CCC[C@@H](N)C5)ccn4c3C3CC3)n(CC3CC3)c2n1)C(F)F` [Example 398, ~{N}-[2-[7-[(3~{R})-3-aminopiperidine-1-carbonyl]-3-cyclopropylimidazo[1,2-a]pyridin-2-yl]-1-(cyclopropylmethyl)pyrrolo [2,3-b]pyridin-6-yl]-~{N}-(difluoromethyl) methanesulfonamide], the IC50 is 60.7 nM.

With “~{N}-[(1~{R})-1-[2-[7- [(1~{R},2~{R},4~{S})-2- amino-7- azabicyclo[2.2.1]heptane- 7-carbonyl]-3-cyclopropyl- 5-methoxyimidazo [1,2-a]pyridin-2-yl]-1-(1- bicyclo[1.1.1] pentanylmethyl)pyrrolo [2,3-b]pyridin-6-yl]ethyl]- 3-fluorobicyclo[1.1.1] pentane-1-carboxamide [Example 487]”, the IC50 amounted to 331 nM.

For the compound `CS(=O)(=O)N(c1ccc2cc(-c3nc4cc(C(=O)N5CCC[C@@H](N)C5)ccn4c3CC3CC3)n(CC3CC3)c2n1)C(F)F` [Example 438, ~{N}-[2-[7-[(3~{R})-3-aminopiperidine-1-carbonyl]-3-(cyclopropylmethyl)imidazo [1,2-a]pyridin-2-yl]-1-(cyclopropylmethyl)pyrrolo [2,3-b]pyridin-6-yl]-~{N}-(difluoromethyl) methanesulfonamide], the 50% inhibitory concentration (IC50) was 194 nM.

Turning to “~{N}-[(1~{R})-1-[2-[7- [(1~{R},2~{R},4~{S})- 2-amino-7-azabicyclo [2.2.1]heptane- 7-carbonyl]-5-methoxy- 3-methylimidazo [1,2-a]pyridin-2-yl]-1- (cyclopropylmethyl) pyrrolo[2,3-b]pyridin- 6-ylethyl]-2,2- dimethylcyclopropane- 1-carboxamide [Example 70]”, the IC50 was 63.2 nM.

Turning to `COc1cc(C(=O)N2[C@@H]3CC[C@@H](N)[C@H]2CC3)cc2nc(-c3cc4ccc(N(C(F)F)S(C)(=O)=O)nc4n3CC3CC3)c(C)n12` [Example 407, ~{N}-[2-[7-[(1~{R},2~{R}, 5~{R})-2-amino-8-azabicyclo[3.2.1]octane-8-carbonyl]-5-methoxy-3-methylimidazo[1,2-a]pyridin-2-yl]-1-(cyclopropylmethyl)pyrrolo [2,3-b]pyridin-6-yl]-~{N}-(difluoromethyl) methanesulfonamide], the IC50 worked out at 129 nM.

On to `COc1cc(C(=O)N2CC[C@@H](O)[C@@H](N)C2)cc2nc(-c3cc4ccc(N(C(F)F)S(C)(=O)=O)nc4n3CC3CC3)c(C)n12` [Example 348, ~{N}-[2-[7-[(3~{S}, 4~{R})-3-amino-4-hydroxypiperidine-1-carbonyl]-5-methoxy-3-methylimidazo [1,2-a]pyridin-2-yl]-1-(cyclopropylmethyl)pyrrolo[2,3-b]pyridin-6-yl]-~{N}-(difluoromethyl) methanesulfonamide], for which the half-maximal inhibitory concentration (IC50) amounted to 144 nM.

In the case of `COc1cc(C(=O)N2C[C@H](N)CCN2C)cc2nc(-c3cc4ccc([C@@H](C)NC(=O)C56CC(F)(C5)C6)nc4n3CC3CC3)c(C)n12` [Example 615, N—((R)-1-(2-(7-((R)-5-amino-2-methylhexahydropyridazine-1-carbonyl)-5-methoxy-3-methylimidazo[1,2-a]pyridin-2-yl)-1-(cyclopropylmethyl)-1H-pyrrolo[2,3-b]pyridin-6-yl)ethyl)-3-fluorobicyclo[1.1.1]pentane-1-carboxamide], the IC50 amounted to 69.6 nM.
